{
  "source": "patent US5300629A",
  "about": "“Bactericidal and/or bacteriostatic peptides isolated from hemolymph of honeybees” (Plant Genetic Systems, N.V., priority 1987, dated 1994)",
  "assay_type_in_all_cases": "cell-based",
  "key": {"[1]": {"test_system": "Klebsiella aerogenes 1961 E", "test": "Inhibition zone assay", "parameters": "key: --: \"-\" means that no inhibition has been found", "details": "I and B 10 ul, L 5 ug"}, "[2]": {"test_system": "Azospirillum brasilliense ATCC 29145", "test": "Inhibition zone assay", "parameters": "key: --: \"-\" means that no inhibition has been found"}, "[3]": {"test_system": "Pseudomonas cepacia ATCC 25416", "test": "Inhibition zone assay", "parameters": "key: --: \"-\" means that no inhibition has been found", "details": "I and B 10 ul, L 5 ug"}, "[4]": {"test_system": "Corynebacterium insidiosum NCPPB 1109", "test": "Inhibition zone assay", "details": "I and B 10 ul, L 5 ug", "procedure": "Whole lymph or purified components, resuspended in PBS to a final volume equal to the starting material (heated lymph), was applied in 3 mm wells on agar plates seeded with the test organisms. Antibacterial activity was determined by measuring the growth-inhibition zones (in mm)."}, "[5]": {"test_system": "Salmonella typhimurium NCTC 74", "test": "Inhibition zone assay", "parameters": "key: --: \"-\" means that no inhibition has been found", "details": "I and B 10 ul"}, "[6]": {"test_system": "Pseudomonas syringae pv. tomato NCPPB 1106", "test": "Inhibition zone assay", "parameters": "key: --: \"-\" means that no inhibition has been found", "details": "* synthetic ApidIa and heattreated immune lymph instead of Bee6 and native immune lymph"}, "[7]": {"test_system": "Pseudomonas syringae pv. syringae ATCC 19310", "test": "Inhibition zone assay", "parameters": "key: --: \"-\" means that no inhibition has been found"}, "[8]": {"test_system": "Pseudomonas solanacearum ATCC 11696", "parameters": "key: --: \"-\" means that no inhibition has been found", "details": "* synthetic ApidIa and heattreated immune lymph instead of Bee6 and native immune lymph"}, "[9]": {"test_system": "Citrobacter freundii ATCC 8090", "test": "Inhibition zone assay", "parameters": "key: --: \"-\" means that no inhibition has been found"}, "[10]": {"test_system": "Salmonella infantis 81/257", "test": "Inhibition zone assay", "parameters": "key: --: \"-\" means that no inhibition has been found", "details": "I and B 10 ul"}, "[11]": {"test_system": "Enterobacter cloacae BE 97", "test": "Inhibition zone assay", "parameters": "key: --: \"-\" means that no inhibition has been found", "details": "I and B 10 ul"}, "[12]": {"test_system": "Proteus morganii CuETM 77-83", "test": "Inhibition zone assay", "parameters": "key: --: \"-\" means that no inhibition has been found", "details": "I and B 10 ul, L 5 ug"}, "Streptococci": {"test_system": "Streptococci", "test": "Growth-inhibition zone assay"}, "[13]": {"test_system": "Agrobacterium radiobacter ATCC 19358", "test": "Inhibition zone assay", "parameters": "key: --: \"-\" means that no inhibition has been found", "details": "I and B 10 ul, L 5 ug"}, "[14]": {"test_system": "Erwinia carotovora var. atroseptica NCPPB 549", "test": "Inhibition zone assay", "parameters": "key: --: \"-\" means that no inhibition has been found", "details": "I and B 10 ul, L 5 ug"}, "[15]": {"test_system": "Azospirillum lipoferum ATCC 29707", "test": "Inhibition zone assay", "parameters": "key: --: \"-\" means that no inhibition has been found", "details": "I and B 10 ul, L 5 ug"}, "[16]": {"test_system": "Enterobacter agglomerans ICPB 3423", "test": "Inhibition zone assay", "parameters": "key: --: \"-\" means that no inhibition has been found"}},
  "note": "Where a SMILES comes first, the peptide text is derived from it.",
  "data": [
    {"smiles": "CC[C@H](C)[C@H](NC(=O)[C@H](CCCCN)NC(=O)[C@@H]1CCCN1C(=O)[C@H](CC(N)=O)NC(=O)[C@H](Cc1ccccc1)NC(=O)[C@@H]1CCCN1C(=O)CNC(=O)[C@H](CCC(N)=O)NC(=O)CNC(=O)[C@@H]1CCCN1C(=O)[C@H](Cc1ccccc1)NC(=O)[C@@H](NC(=O)[C@@H]1CCCN1C(=O)[C@H](Cc1ccccc1)NC(=O)[C@@H]1CCCN1C(=O)[C@H](CCCNC(=N)N)NC(=O)[C@H](CCCNC(=N)N)NC(=O)CNC(=O)[C@@H]1CCCN1C(=O)[C@H](CCC(N)=O)NC(=O)[C@@H]1CCCN1C(=O)[C@@H](NC(=O)[C@H](CC(N)=O)NC(=O)[C@@H]1CCCN1C(=O)[C@H](CC(C)C)NC(=O)[C@@H]1CCCN1C(=O)[C@@H](NC(=O)[C@@H](N)Cc1ccc(O)cc1)C(C)C)C(C)C)[C@@H](C)O)C(=O)N[C@@H](CCCCN)C(=O)N[C@@H](Cc1c[nH]c2ccccc12)C(=O)N1CCC[C@H]1C(=O)N[C@@H](CCC(N)=O)C(=O)NCC(=O)N[C@@H](Cc1ccc(O)cc1)C(=O)O", "note": "[bee 9] (H-YVPLPNVPQPGRRPFPTFPGQGPFNPKIKWPQGY-OH)", "values": [
      {"measurement": "diameter of growth-inhibition zone", "setting": "[1]", "value": "--"},
      {"measurement": "diameter of growth-inhibition zone", "setting": "[2]", "value": "--"},
      {"measurement": "diameter of growth-inhibition zone", "setting": "[3]", "value": "--"},
      {"measurement": "diameter of growth-inhibition zone", "setting": "[4]", "value": 7, "unit": "mm"},
      {"measurement": "diameter of growth-inhibition zone", "setting": "[5]", "value": "--"},
      {"measurement": "diameter of growth-inhibition zone", "setting": "[6]", "value": "--"},
      {"measurement": "diameter of growth-inhibition zone", "setting": "[7]", "value": "--"},
      {"measurement": "diameter of growth-inhibition zone", "setting": "[8]", "value": "--"},
      {"measurement": "diameter of growth-inhibition zone", "setting": "[9]", "value": "--"},
      {"measurement": "diameter of growth-inhibition zone", "setting": "[10]", "value": "--"},
      {"measurement": "diameter of growth-inhibition zone", "setting": "[11]", "value": "--"},
      {"measurement": "diameter of growth-inhibition zone", "setting": "[12]", "value": "--"},
      {"measurement": "susceptibility, in words", "setting": "Streptococci", "value": "resistant"},
      {"measurement": "diameter of growth-inhibition zone", "setting": "[13]", "value": "--"},
      {"measurement": "diameter of growth-inhibition zone", "setting": "[14]", "value": "--"},
      {"measurement": "diameter of growth-inhibition zone", "setting": "[15]", "value": "--"},
      {"measurement": "diameter of growth-inhibition zone", "setting": "[16]", "value": "--"}
    ]}
  ]
}
